Assay results taken from patent publication US9040532B2, “Alpha adrenergic receptor modulators” (Allergan, Inc., priority 2009, dated 2015).
Read-outs that look alike come from different tables or passages of the source.

Columns and labels:
Alpha 2A = target: T1, Alpha 2A (Homo sapiens, UniProt P08913); experiment: FLIPR assay, intracellular Ca2+ mobilization, alpha 2A; type: cell-based; conditions: for EC50: agonist, read-out: Alpha 2A Potency (EC50); for Alpha 2A relative efficacy compared to a standard full agonist: value in parentheses
T1 sequence (P08913 1-465): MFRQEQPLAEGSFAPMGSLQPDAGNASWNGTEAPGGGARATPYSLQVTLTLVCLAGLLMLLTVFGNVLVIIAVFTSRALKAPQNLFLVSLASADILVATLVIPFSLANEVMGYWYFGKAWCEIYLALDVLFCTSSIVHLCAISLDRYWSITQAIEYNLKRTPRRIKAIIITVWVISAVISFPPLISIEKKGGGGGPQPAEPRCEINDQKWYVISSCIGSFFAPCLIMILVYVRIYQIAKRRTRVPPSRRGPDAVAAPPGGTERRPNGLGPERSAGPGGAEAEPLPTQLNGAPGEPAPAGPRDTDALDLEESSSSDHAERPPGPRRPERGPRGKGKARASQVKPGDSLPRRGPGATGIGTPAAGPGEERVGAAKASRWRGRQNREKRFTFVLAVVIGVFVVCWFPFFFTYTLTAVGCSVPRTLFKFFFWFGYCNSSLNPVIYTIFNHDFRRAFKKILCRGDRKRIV
Description: The compounds described herein were tested for alpha adrenergic activity using a Fluorometric Imaging plate Reader (FLIPR) assay (Princen et al., 2003, Cytometry Part A. 51, pp. 35-45). Cells are loaded into a plate reader with a Ca^2+ dye indicator and incubated with various compounds. This assay is adequate for monitoring the intracellular Ca^2+ mobilization from fluorescent readings to evaluate receptor agonists. […] The compounds described herein activate alpha adrenergic receptors.

Alpha 2B [1] = target: T2, Alpha 2B (Homo sapiens, UniProt P18089); experiment: FLIPR assay, intracellular Ca2+ mobilization, alpha 2B; type: cell-based; conditions: FLIPR; for EC50: agonist, read-out: Alpha 2B Potency (EC50); for Alpha 2B relative efficacy compared to a standard full agonist: value in parentheses
T2 sequence (P18089 1-450): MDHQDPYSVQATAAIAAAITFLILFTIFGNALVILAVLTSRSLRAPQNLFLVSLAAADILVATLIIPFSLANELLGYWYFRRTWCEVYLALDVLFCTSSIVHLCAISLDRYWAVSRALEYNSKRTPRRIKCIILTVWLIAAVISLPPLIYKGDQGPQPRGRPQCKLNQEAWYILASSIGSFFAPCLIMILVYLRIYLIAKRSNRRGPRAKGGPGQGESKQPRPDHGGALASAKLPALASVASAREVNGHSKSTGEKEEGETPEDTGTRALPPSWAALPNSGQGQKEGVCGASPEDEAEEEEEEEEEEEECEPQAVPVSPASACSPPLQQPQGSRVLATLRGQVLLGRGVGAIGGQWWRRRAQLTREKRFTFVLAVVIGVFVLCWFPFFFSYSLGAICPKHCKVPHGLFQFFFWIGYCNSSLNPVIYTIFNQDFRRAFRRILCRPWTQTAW
Description: (§1) Cells are loaded into a plate reader with a Ca^2+ dye indicator and incubated with various compounds. This assay is adequate for monitoring the intracellular Ca^2+ mobilization from fluorescent readings to evaluate receptor agonists.

Alpha 2C = target: T3, Alpha 2C (Homo sapiens, UniProt P18825); experiment: FLIPR assay, intracellular Ca2+ mobilization, alpha 2C; type: cell-based; conditions: for EC50: agonist, read-out: Alpha 2C Potency (EC50); for Alpha 2C relative efficacy compared to a standard full agonist: value in parentheses
T3 sequence (P18825 1-462): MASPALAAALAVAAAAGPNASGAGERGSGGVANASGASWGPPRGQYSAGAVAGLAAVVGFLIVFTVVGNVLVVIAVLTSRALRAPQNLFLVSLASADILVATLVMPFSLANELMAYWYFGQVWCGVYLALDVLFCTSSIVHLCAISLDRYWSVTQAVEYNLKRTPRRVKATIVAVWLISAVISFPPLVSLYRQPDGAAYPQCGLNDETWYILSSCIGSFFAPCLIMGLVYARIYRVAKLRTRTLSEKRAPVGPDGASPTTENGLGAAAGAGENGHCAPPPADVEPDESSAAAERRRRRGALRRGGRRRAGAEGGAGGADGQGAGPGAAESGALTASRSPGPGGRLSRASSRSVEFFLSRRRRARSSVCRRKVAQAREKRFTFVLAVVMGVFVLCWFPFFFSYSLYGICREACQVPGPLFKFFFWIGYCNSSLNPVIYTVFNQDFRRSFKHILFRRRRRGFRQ
Description: as §1

[2] = system: Intraoccular Pressure (IOP); experiment: In-vivo intraocular pressure compound screening; conditions: normotensive male Dutch-Belted rabbits, single 50 μl topical drop, 0.15% or 1.0%; for IOP lowering: IOP 0.5-8 h vs 0 h baseline
Description: The experimental animals used, were Normotensive male Dutch-Belted rabbits over 6 months in age (n=4/compound/dose screened). A single drop (50 μl) of the drug formulation, which yields 0.15% or 1.0% of the active metabolite was administered topically by pipette onto the right eye (treated eye) at approximately 0700 hours. Intraoccular Pressure (IOP) of the rabbits (treated and untreated eyes) was measured 0 hours before and at 0.5, 1, 2, 3, 4, 6 and 8 hours after topical eyedrop administration. IOP at the time of eyedrop administration (0 hours) was used as a baseline value. Prior to the tonometric measurements, 0.05% proparacaine (50 μl) was administered to each eye. Tonometric IOP measurements were obtained with a Mentor Pneumontonmeter. Additionally, all studies were masked. At least 1 week of wash-out time was allowed for each rabbit between dosings. All animals were examined for sedation, ocular irritation, and changes in pupil diameter throughout the course of the experiments. […] In this assay, Compound 10 lowered IOP about 35%.

Alpha 2B [3] = target: Alpha 2B (Homo sapiens, UniProt P18089); experiment: FLIPR assay, intracellular Ca2+ mobilization, alpha 2B; type: cell-based
Description: as §1

Compound	EC50 (Alpha 2A) [nM]	Alpha 2A relative efficacy compared to a standard full agonist (Alpha 2A)	EC50 (Alpha 2B [1]) [nM]	Alpha 2B relative efficacy compared to a standard full agonist (Alpha 2B [1])	EC50 (Alpha 2C) [nM]	Alpha 2C relative efficacy compared to a standard full agonist (Alpha 2C)	EC50 (Alpha 2B [3]) [nM]	IOP lowering [2]	IOP lowered ([2]; vs 0 h baseline)
c1cc(NC2=NCCC2)c2cc[nH]c2c1 [Compound 25, N-(3,4-Dihydro-2H-pyrrol-5-yl)-1H-indol-4-amine]	115	(0.7)	152	(0.42)	< 10	(0.99)			
Clc1c(NC2=NCCC2)ccc2cccnc12 [Compound 9, 8-Chloro-N-(3,4-dihydro-2H-pyrrol-5-yl)quinolin-7-amine]	429	(1)	1050	(0.38)	218	(0.97)		show potential in lowering IOP	
c1ccc2c(NC3=NCCC3)cccc2c1 [Compound 1, N-1-Naphthyl-3,4-dihydro-2H-pyrrol-5-amine]	61	(0.81)	30	(0.16)	5	(0.88)			
Cc1c(NC2=NCCC2)ccc2nccnc12 [Compound 27, N-(3,4-Dihydro-2H-pyrrol-5-yl)-5-methylquinoxalin-6-amine]	121	(0.89)			16	(0.9)		show potential in lowering IOP	
Cc1c(NC2=NCCC2)ccc2cccnc12 [Compound 29, N-(3,4-Dihydro-2H-pyrrol-5-yl)-8-methylquinolin-7-amine]	6	(0.98)	80	(0.2)	< 1	(1)		show potential in lowering IOP	
Cc1cccc2c1CC[C@@H]2NC1=NCCC1 [Compound 37, N-[(1S)-4-Methyl-2,3-dihydro-1H-inden-1-yl]-3,4-dihydro-2H-pyrrol-5-amine]	272	(0.43)	21	(0.9)	58	(0.94)			
c1cc2c(cc1NC1=NCCC1)CCCC2							293		
Cc1ccc2ccccc2c1NC1=NCCC1 [Compound 2, N-(2-Methyl-1-naphthyl)-3,4-dihydro-2H-pyrrol-5-amine]	733	(0.61)	145	(0.18)	368	(0.85)			

The next lines start with results.

EC50 (Alpha 2A) [nM]	Alpha 2A relative efficacy compared to a standard full agonist (Alpha 2A)	EC50 (Alpha 2B [1]) [nM]	Alpha 2B relative efficacy compared to a standard full agonist (Alpha 2B [1])	EC50 (Alpha 2C) [nM]	Alpha 2C relative efficacy compared to a standard full agonist (Alpha 2C)	EC50 (Alpha 2B [3]) [nM]	Compound	IOP lowering [2]	IOP lowered ([2]; vs 0 h baseline)
203	(1)	510	(0.86)	58	(1)		Cc1c(NC2=NCCC2)ccc2[nH]cnc12 [Compound 12, N-(3,4-dihydro-2H-pyrrol-5-yl)-4-methyl-1H-benzimidazol-5-amine]	show potential in lowering IOP	
216	(0.98)	513	(0.69)	35	(1)		Clc1c(NC2=NCCC2)ccc2[nH]cnc12 [Compound 11, 4-Chloro-N-(3,4-dihydro-2H-pyrrol-5-yl)-1H-benzimidazol-5-amine]	show potential in lowering IOP	
1070	(0.81)	2200	(0.21)	1050	(0.82)		Brc1c(NC2=NCCC2)ccc2nccnc12 [Compound 8, 5-Bromo-N-(3,4-dihydro-2H-pyrrol-5-yl)quinoxalin-6-amine]		
3	(1)	90	(0.76)	1.5	(0.94)		Brc1c(NC2=NCCC2)ccc2[nH]cnc12 [Compound 10, 4-Bromo-N-(3,4-dihydro-2H-pyrrol-5-yl)-1H-benzimidazol-5-amine]	show potential in lowering IOP	about 35%
